From patent US20260007681A1, “INDOLE DERIVATIVES AS ESTROGEN RECEPTOR DEGRADERS” (REGENTS OF THE UNIVERSITY OF MICHIGAN, priority 2022, published 2026)

Target: ER (Homo sapiens (Human), UniProt P03372)
Assay: Western blot analysis (Compounds B1-B278)
Format: cell-based
Conditions: ER degradation by traditional Western blot; DC50 classes
Method: Western Blot Analysis. The cells that are treated with the compounds are lysed in Radioimmunoprecipitation Assay Protein Lysis and Extraction Buffer (e.g., 25 mmol/L Tris.HCl, pH 7.6, 150 mmol/L NaCl, 1% Nonidet P-40, 1% sodium deoxycholate, and 0.1% sodium dodecyl sulfate) containing proteinase inhibitor cocktail. Equal amounts of total protein are electrophoresed through 10% SDS-polyacrylamide gels after determination of protein concentration by BCA assay. The separated protein bands are transferred onto PVDF membranes and blotted against different antibodies. The blots are scanned, and the band intensities are quantified (e.g., by using GelQuant.NET software provided by biochemlabsolutions.com). The relative mean intensity of target proteins is expressed after normalization to the intensity of glyceraldehyde-3-phosphate dehydrogenase bands.
Western Blot Analysis. Western blot analysis was performed essentially as described previously. The cells treated with indicated compounds were lysed in Radioimmunoprecipitation Assay Protein Lysis and Extraction Buffer (25 mmol/L Tris.HCl, pH 7.6, 150 mmol/L NaCl, 1% Nonidet P-40, 1% sodium deoxycholate, and 0.1% sodium dodecyl sulfate) containing proteinase inhibitor cocktail (Roche Diagnostics, Mannheim, Germany). Equal amounts of total protein were electrophoresed through 10% SDS-polyacrylamide gels after determination of protein concentration by BCA assay (Fisher Scientific, Pittsburgh, PA). The separated protein bands were transferred onto PVDF membranes (GE Healthcare Life Sciences, Marlborough, MA) and blotted against different antibodies, as indicated. The blots were scanned, and the band intensities were quantified using GelQuant.NET software provided by biochemlabsolutions.com. The relative mean intensity of target proteins was expressed after normalization to the intensity of glyceraldehyde-3-phosphate dehydrogenase bands.

Sequence of ER (P03372 whole entry): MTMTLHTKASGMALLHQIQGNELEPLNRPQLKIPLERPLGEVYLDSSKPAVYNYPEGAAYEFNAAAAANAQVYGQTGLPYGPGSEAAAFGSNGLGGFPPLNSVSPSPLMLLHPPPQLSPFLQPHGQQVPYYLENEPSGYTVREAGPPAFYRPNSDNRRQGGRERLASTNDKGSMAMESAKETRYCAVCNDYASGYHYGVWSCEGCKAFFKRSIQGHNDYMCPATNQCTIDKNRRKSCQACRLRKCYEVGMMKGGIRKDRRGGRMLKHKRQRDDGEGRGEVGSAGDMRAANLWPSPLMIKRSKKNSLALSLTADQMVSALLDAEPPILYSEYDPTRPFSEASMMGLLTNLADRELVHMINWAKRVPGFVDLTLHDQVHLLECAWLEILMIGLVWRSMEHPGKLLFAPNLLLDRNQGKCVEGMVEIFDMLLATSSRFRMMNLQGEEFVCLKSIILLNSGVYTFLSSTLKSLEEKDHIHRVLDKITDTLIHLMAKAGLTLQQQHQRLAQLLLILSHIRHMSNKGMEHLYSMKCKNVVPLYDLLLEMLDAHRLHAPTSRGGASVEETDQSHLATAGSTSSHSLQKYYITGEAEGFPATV

Traditional Western Degradation Potency | Compound
C (“C”: >100 nM) | C[C@@H]1Cc2c([nH]c3ccccc23)[C@@H](c2c(F)cc(N3CCCC4(CCN(C(=O)CN5Cc6cc7c(cc6C5)C(=O)N(C5CCC(=O)NC5=O)C7=O)C4)C3)cc2F)N1CC(F)F (stereo partly drawn) [Compound B21, 6-(2-(7-(4-((1R,3R)-2-(2,2-difluoroethyl)-3-methyl-2,3,4,9-tetrahydro-1H-pyrido[3,4-b]indol-1-yl)-3,5-difluorophenyl)-2,7-diazaspiro[4.5]decan-2-yl)-2-oxoethyl)-2-(2,6-dioxopiperidin-3-yl)-6,7-dihydropyrrolo[3,4-f]isoindole-1,3(2H,5H)-dione]
B (“B”: 10-100 nM) | C[C@@H]1Cc2c([nH]c3ccccc23)[C@@H](c2c(F)cc(N3CCC4(CCN(C(=O)CN5Cc6cc7c(cc6C5)C(=O)N(C5CCC(=O)NC5=O)C7=O)C4)C3)cc2F)N1CC(F)F (stereo partly drawn) [Compound B22, 6-(2-(7-(4-((1R,3R)-2-(2,2-difluoroethyl)-3-methyl-2,3,4,9-tetrahydro-1H-pyrido[3,4-b]indol-1-yl)-3,5-difluorophenyl)-2,7-diazaspiro[4.4]nonan-2-yl)-2-oxoethyl)-2-(2,6-dioxopiperidin-3-yl)-6,7-dihydropyrrolo[3,4-f]isoindole-1,3(2H,5H)-dione]
B (“B”: 10-100 nM) | C[C@H]1Cc2c([nH]c3ccccc23)[C@H](c2c(F)cc(N3CC4(CCCN(C(=O)CN5Cc6cc7c(cc6C5)C(=O)N(C5CCC(=O)NC5=O)C7=O)C4)C3)cc2F)N1CC(F)F (stereo partly drawn) [Compound B23, 6-(2-(2-(4-((1S,3S)-2-(2,2-difluoroethyl)-3-methyl-2,3,4,9-tetrahydro-1H-pyrido[3,4-b]indol-1-yl)-3,5-difluorophenyl)-2,6-diazaspiro[3.5]nonan-6-yl)-2-oxoethyl)-2-(2,6-dioxopiperidin-3-yl)-6,7-dihydropyrrolo[3,4-f]isoindole-1,3(2H,5H)-dione]
B (“B”: 10-100 nM) | C[C@@H]1Cc2c([nH]c3ccccc23)[C@@H](c2c(F)cc(N3CCCC4(CN(C(=O)CN5Cc6cc7c(cc6C5)C(=O)N(C5CCC(=O)NC5=O)C7=O)C4)C3)cc2F)N1CC(F)F (stereo partly drawn) [Compound B24, 6-(2-(6-(4-((1R,3R)-2-(2,2-difluoroethyl)-3-methyl-2,3,4,9-tetrahydro-1H-pyrido[3,4-b]indol-1-yl)-3,5-difluorophenyl)-2,6-diazaspiro[3.5]nonan-2-yl)-2-oxoethyl)-2-(2,6-dioxopiperidin-3-yl)-6,7-dihydropyrrolo[3,4-f]isoindole-1,3(2H,5H)-dione]
A (“A”: <10 nM) | C[C@@H]1Cc2c([nH]c3ccccc23)[C@@H](c2c(F)cc(N3CC4(CN(C(=O)CN5Cc6cc7c(cc6C5)C(=O)N(C5CCC(=O)NC5=O)C7=O)C4)C3)cc2F)N1CC(F)F (stereo partly drawn) [Compound B25, 6-(2-(6-(4-((1R,3R)-2-(2,2-difluoroethyl)-3-methyl-2,3,4,9-tetrahydro-1H-pyrido[3,4-b]indol-1-yl)-3,5-difluorophenyl)-2,6-diazaspiro[3.3]heptan-2-yl)-2-oxoethyl)-2-(2,6-dioxopiperidin-3-yl)-6,7-dihydropyrrolo[3,4-f]isoindole-1,3(2H,5H)-dione]
A (“A”: <10 nM) | C[C@@H]1Cc2c([nH]c3ccccc23)[C@@H](c2c(F)cc(N3CCC4(CN(C(=O)CN5Cc6cc7c(cc6C5)C(=O)N(C5CCC(=O)NC5=O)C7=O)C4)C3)cc2F)N1CC(F)F (stereo partly drawn) [Compound B26, 6-(2-(6-(4-((1R,3R)-2-(2,2-difluoroethyl)-3-methyl-2,3,4,9-tetrahydro-1H-pyrido[3,4-b]indol-1-yl)-3,5-difluorophenyl)-2,6-diazaspiro[3.4]octan-2-yl)-2-oxoethyl)-2-(2,6-dioxopiperidin-3-yl)-6,7-dihydropyrrolo[3,4-f]isoindole-1,3(2H,5H)-dione]
A (“A”: <10 nM) | C[C@H]1Cc2c([nH]c3ccccc23)[C@H](c2c(F)cc(N3CC4(CCN(C(=O)CN5Cc6cc7c(cc6C5)C(=O)N(C5CCC(=O)NC5=O)C7=O)CC4)C3)cc2F)N1CC(F)F (stereo partly drawn) [Compound B27, 6-(2-(2-(4-((1S,3S)-2-(2,2-difluoroethyl)-3-methyl-2,3,4,9-tetrahydro-1H-pyrido[3,4-b]indol-1-yl)-3,5-difluorophenyl)-2,7-diazaspiro[3.5]nonan-7-yl)-2-oxoethyl)-2-(2,6-dioxopiperidin-3-yl)-6,7-dihydropyrrolo[3,4-f]isoindole-1,3(2H,5H)-dione]
A (“A”: <10 nM) | C[C@H]1Cc2c([nH]c3ccccc23)[C@H](c2c(F)cc(N3CC4(CCN(C(=O)CN5Cc6cc7c(cc6C5)C(=O)N(C5CCC(=O)NC5=O)C7)CC4)C3)cc2F)N1CC(F)F (stereo partly drawn) [Compound B28, 3-(6-(2-(2-(4-((1S,3S)-2-(2,2-difluoroethyl)-3-methyl-2,3,4,9-tetrahydro-1H-pyrido[3,4-b]indol-1-yl)-3,5-difluorophenyl)-2,7-diazaspiro[3.5]nonan-7-yl)-2-oxoethyl)-1-oxo-3,5,6,7-tetrahydropyrrolo[3,4-f]isoindol-2(1H)-yl)piperidine-2,6-dione]
B (“B”: 10-100 nM) | C[C@@H]1Cc2c([nH]c3ccccc23)[C@@H](c2c(F)cc(N3CCC(N4CCC(CN5Cc6cc7c(cc6C5)C(=O)N(C5CCC(=O)NC5=O)C7)CC4)CC3)cc2F)N1CC(F)F (stereo partly drawn) [Compound B29, 3-(6-((1′-(4-((1R,3R)-2-(2,2-difluoroethyl)-3-methyl-2,3,4,9-tetrahydro-1H-pyrido[3,4-b]indol-1-yl)-3,5-difluorophenyl)-[1,4′-bipiperidin]-4-yl)methyl)-1-oxo-3,5,6,7-tetrahydropyrrolo[3,4-f]isoindol-2(1H)-yl)piperidine-2,6-dione]
C (“C”: >100 nM) | C[C@@H]1Cc2c([nH]c3ccccc23)[C@@H](c2c(F)cc(N3CCC(N4CCC(N5Cc6cc7c(cc6C5)C(=O)N(C5CCC(=O)NC5=O)C7=O)CC4)CC3)cc2F)N1CC(F)F (stereo partly drawn) [Compound B30, 6-(1′-(4-((1R,3R)-2-(2,2-difluoroethyl)-3-methyl-2,3,4,9-tetrahydro-1H-pyrido[3,4-b]indol-1-yl)-3,5-difluorophenyl)-[1,4′-bipiperidin]-4-yl)-2-(2,6-dioxopiperidin-3-yl)-6,7-dihydropyrrolo[3,4-f]isoindole-1,3(2H,5H)-dione]
C (“C”: >100 nM) | C[C@@H]1Cc2c([nH]c3ccccc23)[C@@H](c2c(F)cc(N3CCC(N4Cc5cc6c(cc5C4)C(=O)N(C4CCC(=O)NC4=O)C6=O)CC3)cc2F)N1CC(F)F (stereo partly drawn) [Compound B31, 6-(1-(4-((1R,3R)-2-(2,2-difluoroethyl)-3-methyl-2,3,4,9-tetrahydro-1H-pyrido[3,4-b]indol-1-yl)-3,5-difluorophenyl)piperidin-4-yl)-2-(2,6-dioxopiperidin-3-yl)-6,7-dihydropyrrolo[3,4-f]isoindole-1,3(2H,5H)-dione]
C (“C”: >100 nM) | C[C@@H]1Cc2c([nH]c3ccccc23)[C@@H](c2c(F)cc(N3CCC(CN4Cc5cc6c(cc5C4)C(=O)N(C4CCC(=O)NC4=O)C6=O)CC3)cc2F)N1CC(F)F (stereo partly drawn) [Compound B32, 6-((1-(4-((1R,3R)-2-(2,2-difluoroethyl)-3-methyl-2,3,4,9-tetrahydro-1H-pyrido[3,4-b]indol-1-yl)-3,5-difluorophenyl)piperidin-4-yl)methyl)-2-(2,6-dioxopiperidin-3-yl)-6,7-dihydropyrrolo[3,4-f]isoindole-1,3(2H,5H)-dione]
